Entries after “also recorded” stand apart in the source; their conditions may differ. Where a name gives a salt, the structure may show the parent alone.

Series [1] concerns frataxin deficient 50B11 dorsal root ganglion cell line. Put plainly: Thiol-antioxidant inhibitors in siRNA-mediated frataxin deficient 50B11 dorsal root ganglion cell line. Format: cell-based. The conditions noted are these: for death of neurons with frataxin deficiency on treatment: siRNA frataxin knockdown vs. control. Here is the method: Therefore, 11 inhibitors of these antioxidants were tested in siRNA-mediated frataxin deficient 50B11 dorsal root ganglion cell line. […] The major mitochondrial antioxidant system is thioredoxin reductase. Auranofin is a specific inhibitor of thioredoxin reductase, and diamide is a known oxidizer of thioredoxin. Thus the diamide screen identifies compounds that rescue from thioredoxin reductase deficiency, which include inducers of Nrf2, which are known to induce thioredoxin reductase and other antioxidant functions.

Series [2] deals with frataxin (FXN) protein in HeLa cells. Kind of series: Frataxin protein level in HeLa cells by Western blot. Format: cell-based, human. Here is the method: (§1) To test if one mechanism of protection from diamide toxicity for dyclonine was an increase in frataxin protein levels, HeLa cells or FRDA patient lymphoblasts were cultured for 48 hr in the presence of 10 micromolar dyclonine in 6 well dishes. Cells were harvested and whole cell lysates were analyzed by Western blot (protocol below). Representative blots are shown for HeLa cells (FIG. 5A) and FRDA and healthy siblings lymphoblasts (FIG. 5B), as well as densitometry normalization to actin. Dyclonine induction of FXN levels was consistent over multiple experiments (FIG. 5C).
(§2) Western Blot Protocol: Forty micrograms of whole-cell lysates were analyzed on […] Bis-Tris gels (Invitrogen, Carsbad, Calif., USA). Electrophoresis was carried out according to the manufacturer's instruction. After electrophoresis, the proteins were transferred to nitrocellulose membranes by iBlot device (Invitrogen). The membranes were blocked with blocking buffer (Odyssey, Lincoln, Nebr., USA) for 1 h and incubated overnight with primary antibodies in blocking buffer: anti-frataxin anti-β-actin, tubulin, (Sigma). Afterwards, the membranes were incubated with a corresponding pair of IRDye 680CW- and IRDye 800CW-coupled (Odyssey) secondary antibodies for 1 h. The membranes were washed four times with 1× Tris-buffered saline with Tween 20 and proteins were visualized with a LI-COR infrared imager (Odyssey). The pictures were processed by Odyssey version 3.0 infrared imaging software.
(§3) An additional hit in the diamide screening assay in FRDA fibroblasts was dimethyl fumarate (protocol above). […] To test if the mechanism of protection from diamide toxicity was an increase in frataxin protein levels, HeLa cells or FRDA patient lymphoblasts were cultured for 48 hr in the presence of 0.03-30 micromolar dimethyl fumarate in 12-well dishes. Cells were harvested and whole cell lysates were analyzed by Western blot (protocol above). Representative blots are shown for HeLa cells (FIG. 9A) and FRDA lymphoblasts (FIG. 9B). FXN was induced 1.37 fold ±0.1 (n=3) in HeLa cells, and 2.4 fold ±0.9 (n=3) in FRDA lymphoblasts.

In series [3] the test system is human FRDA patient fibroblasts. Put plainly: Diamide screening assay: protection of FRDA patient fibroblasts from diamide toxicity (Calcein-AM viability). It counts as cell-based. To be noted: for protection from diamide toxicity: 200 micromolar diamide, result in words; for EC50: Homo sapiens, Fibroblast; for EC50 / maximum effect of protection from diamide toxicity, fold increase from baseline: n=3; for maximum effect of protection from diamide toxicity, fold increase from baseline: dose-response. The source says: The cell-based assay was further optimized for high-throughput screening in 96-well plates, with an excellent screening window and low variability, represented by a Z′ value of 0.75 (n=5) and was used to screen a library of 1600 drugs that have been approved for clinical use in the USA. Drugs that rescued at DMSO mean+two standard deviations were repeated an additional two times. Compounds that rescued in >2 screens advanced to secondary screening, which included replication of protective effect in a concentration-dependent manner, 0.01-10 μM. […] Additional mechanisms are listed below.
Diamide Screening Method Format: On the day one of the assay, cell density was determined using the Vi-Cell counter, and a volume corresponding to 5,500 human FRDA patient fibroblasts per well was aliquoted into 96-well black/clear poly-d-lysine coated plates in growth media, and the cells were allowed 3 hours to attach. Drugs (10 mM stock in DMSO) are dispensed into wells after an intermediate dilution in PBS, giving a final DMSO concentration of 0.1% using an electronic multichannel pipette. Test compounds were tested at 10 micromolar. There were 8 negative control (0.1% DMSO only) and 8 positive control (300 micromolar DTT) wells on each plate. Plates were incubated at 37 C and 5% CO2 for twenty-four hours after which 200 micromolar diamide was added to all wells. Plates were incubated for an additional 16 hours as before. Cells were washed with PBS and incubated with Calcein-AM cell viability dye (Invitrogen, Carlsbad, Calif., USA) and fluorescence was read with a PolarStar Omega plate reader (BMG LabTech, Cary, N.C.). Hits were scored as Basal Median+3×MAD.

Series [4] has as its system frataxin (FXN) protein in YG8 FRDA transgenic mouse. Put plainly: Frataxin level in YG8 FRDA transgenic mouse model (Western blot of cerebellum and splenocytes). Format: in vivo. The conditions noted are these: for FXN expression in vivo, FXN/actin densitometry: hemizygous YG8 mice; for frataxin in brains and other tissues of the animal model of FRDA: result in words. Here is the method:
Dyclonine increases frataxin levels in vivo. To determine ability of dyclonine to reverse the in vivo FXN protein defect, the YG8 FRDA transgenic mouse model was chosen. Hemizygous animals with the least frataxin were separated into vehicle and treatment groups. Homozygous mice (two copies of FXN gene) were used as positive control. Animals were dosed daily with 1 mg/kg dyclonine via intraperitoneal injection for 6 days. At the end of the study, the animals were sacrificed, and processed for biochemical analysis, i.e. Western blots of treated and vehicle groups of Cerebellum and splenocyte frataxin level. Western blot of cerebellum and splenocytes is shown (FIG. 6A) and densitometry of FXN/actin normalization (FIG. 6B) showing dyclonine induces FXN expression in vivo by 1.5-2 fold.
Of these 20, 8 were tested in the YG8 transgenic mouse model. […] Animals were dosed daily with 1-10 mg/kg drug via intraperitoneal injection for 6 days. At the end of the study, the animals were sacrificed, and processed for biochemical analysis, i.e. Western blots (protocol above) of treated and vehicle groups of Cerebellum and splenocyte frataxin level. Western blot of cerebellum is shown (FIG. 7B) and densitometry of FXN/actin normalization (FIG. 7A) showing dimethyl fumarate, dyclonine, methylene blue, and nifursol induce FXN expression in vivo by 1.5-2 fold.
To determine ability of dimethyl fumarate to reverse the in vivo FXN protein defect, the YG8 FRDA transgenic mouse model was chosen. Hemizygous animals with largest FXN defect, were separated into vehicle and treatment groups. Homozygous mice were used as positive control. Animals were dosed daily with 5 mg/kg dimethyl fumarate via intraperitoneal injection for 6 days. A non-specific HDAC inhibitor was used as a positive control, dosed at 1 mg/kg. At the end of the study, the animals were sacrificed, and processed for biochemical analysis, i.e. Western Blots of treated and vehicle groups of cerebellum and splenocyte frataxin level.

Series [5] deals with frataxin (FXN) protein in FRDA patient lymphoblasts. Kind of series: Frataxin protein level in FRDA patient lymphoblasts by Western blot. Format: cell-based, human. The conditions noted are these: 48 hr. The procedure: as §1, §2, §3
An additional hit in the diamide screening assay (protocol above) in FRDA fibroblasts was the phenathiazine, tolonium cl. […] To test if the mechanism of protection from diamide toxicity was an increase in frataxin protein levels, the phenothiazines tolonium cl and methylene blue were tested. […] Cells were harvested and whole cell lysates were analyzed by Western blot (protocol above). […]
To test if Methylene blue also potentiates DMF-mediated FXN induction, FRDA patient lymphoblasts were cultured for 48 hr in the presence of 3 micromolar dimethyl fumarate and 3 micromolar methylene blue in 6 well dishes. Cells were harvested and whole cell lysates were analyzed by Western blot (protocol above).

Series [6] relates to Nrf2 target antioxidant response element (ARE). Kind of series: Nrf2/ARE luciferase assay in reporter HeLa cell line. Format: cell-based, human. The conditions noted are these: for Nrf2/ARE activity (ARE-luciferase): 24 hours, threshold mean+2× Standard deviation of the vehicle control. Here is the method: To evaluate the mechanism of FXN induction of the […] that protected from diamide, the potency of each to activate the Nrf2 target antioxidant response element (ARE) was evaluated. 10 of the 20 frataxin inducers interacted with the Nrf2 pathway in a significant way, either positively or negatively. The dashed line=mean+2×SD. […] Dyclonine's induction of ARE/Nrf2 activity was dose-dependent (FIG. 13B).
The Nrf2 reporter HeLa cell line was generated using the Lenti Antioxidant Response Reporter (Qiagen, Valencia, Calif.) system, which expressed firefly luciferase gene and the ARE transcriptional response element. 15,000 cells/well were plated in 90 ul in phenol-free DMEM media in white wall/bottom 96 well plates. Drugs were added and plates incubated at 37 C for 24 hours. 75 microliters of Bright Glo Luciferase Assay Reagent (Promega, Madison, Wis.) with combined lysis solution was added to all wells and allowed to incubate for 5 minutes at room temperature. Luminescence was then read with a PolarStar Omega plate reader (BMG LabTech, Cary, N.C.).

Series [7] concerns frataxin (FXN) protein in FRDA lymphoblasts. Kind of series: In-cell Western of FXN in FRDA lymphoblasts (synergy of FXN-inducing drugs). It counts as cell-based, human. To be noted: 5 micromolar dyclonine with dose-response of dimethyl fumarate, 48 hours. The procedure: To evaluate potential synergy of identified FXN-inducing drugs, a dose-response of dimethyl fumarate in the absence or presence of 5 micromolar dyclonine was determined in FRDA lymphoblasts incubated for 48 hours in 96 well plates. Whole cells were fixed and permeabilized and for analyzed using in-cell Western technique (protocol below).
In-Cell Western Blot Protocol: 50,000 cells/well were plated in black walled clear bottom 96-well poly-d-lysine coated plates. After drug treatment, media was removed by aspiration and cells were fixed by addition of 100 ul/well of 3.7% formaldehyde in PBS. After 30 minutes, fixing solution was removed and 100 ul/well of 0.1% TritonX100 in PBS was added to all wells. After 40 minutes, cells were blocked with 100 ul blocking buffer (Odyssey, Lincoln, Nebr., USA) for 1 h and incubated with primary antibodies in blocking buffer: anti-frataxin (Mitosciences, Eugene, Oreg.) anti-β-actin (Sigma) for one hour. Cells were washed three times with 1× Tris-buffered saline with Tween 20, and then incubated with 100 ul/well of IRDye 680CW- and IRDye 800CW-coupled (Odyssey) secondary antibodies for 1 h. The cells were washed three times with 1× Tris-buffered saline with Tween 20 and signal was visualized with a LI-COR infrared imager (Odyssey). The pictures were processed by Odyssey version 3.0 infrared imaging software.

For `O[C@@H](CS)[C@@H](O)CS` [DTT], the “reversal of sensitivity to diamide” value in series [1] (frataxin deficient DRG cell line / Friedreich's patient fibroblasts) is “could be reversed”.
Regarding `CC(=O)OC[C@H]1O[C@@H]([S-])[C@H](OC(C)=O)[C@@H](OC(C)=O)[C@@H]1OC(C)=O.CCP(CC)CC.[Au+]` [auranofin], in series [1], the “death of neurons with frataxin deficiency on treatment” value is recorded as “died more rapidly”.
Same read-out and setting: with `CN(C)C(=O)/N=N/C(=O)N(C)C` [diamide] the entry was “died more rapidly”.
As for `COC(=O)/C=C/C(=O)OC` [dimethyl fumarate], in series [2] (48 hr, 0.03-30 micromolar dimethyl fumarate, n=3), the “FXN induction in HeLa cells” value came to 1.37 fold. Moreover, the “significance of FXN induction by concentration” value in series [2] (at 1, 10 and 30 micromolar dimethyl fumarate, 48 hr (FIG. 9C)) is “Significant FXN induction”. In addition, in series [3], the “protection from diamide toxicity” value was “neuroprotective; also recorded: dose-dependent”; the EC50 was 1300 ± 800 nM; the “maximum effect of protection from diamide toxicity, fold increase from baseline” value is on record as 1.9±0.2 fold. The “FXN expression in vivo, FXN/actin densitometry” value in series [4] (5 mg/kg daily intraperitoneal for 6 days, cerebellum, p<0.05) was 1.5-2 fold. Further, the “frataxin in brains and other tissues of the animal model of FRDA” value (“frataxin in brains and other tissues” below) in series [4] is “increased frataxin”. Also, the “FXN induction in FRDA lymphoblasts” value in series [5] (0.03-30 micromolar dimethyl fumarate, n=3) worked out at 2.4 fold. Also, in series [6], the “Nrf2/ARE activity (ARE-luciferase)” value was “induced Nrf2/ARE activity”.
On to `CCCCOc1ccc(C(=O)CCN2CCCCC2)cc1` [dyclonine], for which the “potentiation of DMF FXN induction” value in series [7] is reported as “potentiated DMF FXN induction”. Also, the “frataxin expression in HeLa cells” value in series [2] (48 hr, 10 micromolar dyclonine, result in words) is “Induces Frataxin Expression”. Also, the “protection from diamide toxicity” value in series [3] is reported as “protected FRDA cells from diamide induced oxidative stress; also recorded: dose dependent protection”. For the same compound, the “FXN expression in vivo, FXN/actin densitometry” value in series [4] (1 mg/kg daily intraperitoneal for 6 days, cerebellum and splenocytes) is given as 1.5-2 fold. Besides, the “frataxin in brains and other tissues” value in series [4] is “increased frataxin”. Besides, the “frataxin expression in FRDA lymphoblasts” value in series [5] (10 micromolar dyclonine, result in words) is “Induces Frataxin Expression”. Moreover, in series [6], the “Nrf2/ARE activity (ARE-luciferase)” value is reported as “induced Nrf2/ARE activity”. Besides, in series [6] (FIG. 13B), the “dose dependence of induction of ARE/Nrf2 activity” value was “dose-dependent”.
Turning to `CN(C)c1ccc2nc3ccc(=[N+](C)C)cc-3sc2c1` [methylene blue], in series [3], the “protection from diamide toxicity” value is “neuroprotective”. In addition, the “frataxin in brains and other tissues” value in series [4] is recorded as “increased frataxin”. In series [5] (3 micromolar methylene blue with 3 micromolar dimethyl fumarate, Western blot), the “potentiation of DMF-mediated FXN induction” value is reported as “potentiates DMF FXN induction”. The “Fold FXN induction in FRDA lymphoblasts” value in series [5] (10 nanomolar methylene blue, n=2) was found to be 1.7 fold.
With `O=C(N/N=C/c1ccc([N+](=O)[O-])o1)c1cc([N+](=O)[O-])cc([N+](=O)[O-])c1O` [nifursol], the “protection from diamide toxicity” value in series [3] is reported as “neuroprotective”. Moreover, the “frataxin in brains and other tissues” value in series [4] is “increased frataxin”.
Turning to `Cc1cc2nc3ccc(N(C)C)cc3[s+]c2cc1N` [tolonium cl], in series [3], the EC50 is 100 ± 10 nM and the “maximum effect of protection from diamide toxicity, fold increase from baseline” value is on record as 1.9±0.1 fold.
For the compound mepartricin, the “Nrf2/ARE activity (ARE-luciferase)” value in series [6] is “induced Nrf2/ARE activity”.
